Source: US11236055B2 (Venenum Biodesign, LLC, priority 2016, dated 2022)
Where a name gives a salt, the structure may show the parent alone.

Assays:
mouse TGR5 receptor = target: T1, mouse TGR5 receptor (Mus musculus, UniProt Q80SS6); experiment: Mouse TGR5 cAMP production assay (HTRF, Cisbio cAMP HiRange); assay type: cell-based; settings: HEK293-EBNA cells overexpressing mouse TGR5, HTRF cAMP HiRange; coded A-D
T1 construct: expressed in transfected cells; host or cells: HEK293-EBNA (293 c18, ATCC CRL10852), Hygromycin B selection
T1 sequence (Q80SS6 1-329): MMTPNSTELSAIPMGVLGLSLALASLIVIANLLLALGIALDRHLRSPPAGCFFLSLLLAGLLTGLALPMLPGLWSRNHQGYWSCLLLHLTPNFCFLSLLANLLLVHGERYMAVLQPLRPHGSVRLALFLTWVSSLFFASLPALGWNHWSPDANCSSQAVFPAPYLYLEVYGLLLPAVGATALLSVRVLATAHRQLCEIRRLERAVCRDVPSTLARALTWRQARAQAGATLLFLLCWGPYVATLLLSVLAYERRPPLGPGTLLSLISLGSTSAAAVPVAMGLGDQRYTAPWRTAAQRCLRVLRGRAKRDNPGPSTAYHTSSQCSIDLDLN
In short: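 cAMP read by HTRF competition after 1 h room-temperature compound exposure of mouse TGR5-overexpressing HEK293-EBNA cells. Cells were suspended in serum-free DMEM containing 500 μM IBMX; compounds ran as 12-point half-log dilutions in duplicate; EC50 derived.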

human TGR5 receptor = target: T2, human TGR5 receptor (Homo sapiens, UniProt Q8TDU6); experiment: Human TGR5 cAMP production assay; assay type: cell-based; settings: human TGR5, luminescent cAMP assay; coded A-D; read-out: Human TGR5 Lum. cAMP Activity (EC50)
T2 construct: host or cells: CHO-K1 (hTGR5-CHO cells)
T2 sequence (Q8TDU6 1-330): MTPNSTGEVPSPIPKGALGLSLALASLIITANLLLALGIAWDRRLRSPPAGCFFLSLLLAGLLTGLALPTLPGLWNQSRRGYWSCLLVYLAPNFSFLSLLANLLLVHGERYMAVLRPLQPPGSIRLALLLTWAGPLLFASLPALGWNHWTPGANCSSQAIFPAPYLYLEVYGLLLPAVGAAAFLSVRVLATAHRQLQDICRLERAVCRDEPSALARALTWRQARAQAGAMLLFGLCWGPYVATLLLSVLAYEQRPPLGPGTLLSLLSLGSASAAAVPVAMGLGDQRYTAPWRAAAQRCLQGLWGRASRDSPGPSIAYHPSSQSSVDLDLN
In short: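 Intracellular cAMP read by luminescent enzyme-complementation (XS+) after overnight development, following 1 h room-temperature compound treatment of hTGR5-CHO-K1 cells in IBMX plus anti-cAMP antibody. Compounds tested as half-log dilution series; EC50 derived.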

| Compound | EC50 (mouse TGR5 receptor) [nM] | EC50 (human TGR5 receptor) [nM] |
| --- | --- | --- |
| Cc1cnccc1-c1cccc(C2CN(C(=O)CCCC(=O)O)CCN2S(=O)(=O)c2cccc(Cl)c2C)c1 (stereo not drawn) [Compound 46AE, 5-(4-((3-chloro-2-methylphenyl)sulfonyl)-3-(3-(3-methylpyridin-4-yl)phenyl)piperazin-1-yl)-5-oxopentanoic acid] | < 100 | < 100 |
| Cc1cnccc1-c1cccc([C@H](C)N(CCCC(=O)NCCN)S(=O)(=O)c2ccccc2C(F)(F)F)c1 [Compound 20BX] | 100 to 999 | < 100 |
| Cc1cnccc1-c1cccc([C@H](C)N(CCCC(=O)NCCC(=O)NCC(=O)O)S(=O)(=O)c2cccc(Cl)c2C)c1 [Compound 21AM, (S)-2-(3-(4-(3-chloro-2-methyl-N-(1-(3-(3-methylpyridin-4-yl)phenyl)ethyl)phenylsulfonamido)butanamido)propanamido)acetic acid] | 100 to 999 | < 100 |
| Cc1cnccc1-c1cccc([C@H](C)N(CCCC(=O)NCCNC(=O)NCCC(=O)O)S(=O)(=O)c2cccc(Cl)c2C)c1 [Compound 30, (S)-3-((3-Chloro-2-methylphenyl)sulfonyl)-2-(3-(3-methylpyridin-4-yl)phenyl)-7,12-dioxo-3,8,11,13-tetraazahexadecan-16-oic acid] | 100 to 999 | < 100 |
| Cc1cnccc1-c1cccc(C(C)N(CCCNc2c(NCS(=O)(=O)O)c(=O)c2=O)S(=O)(=O)c2cccc(Cl)c2C)c1 (stereo not drawn) [Compound 32AA, ((2-((3-(3-chloro-2-methyl-N-(1-(3-(3-methylpyridin-4-yl)phenyl)ethyl)phenylsulfonamido)propyl)amino)-3,4-dioxocyclobut-1-en-1-yl)amino)methanesulfonic acid] | 100 to 999 | < 100 |
| CN(C)C(=O)c1cnccc1-c1cccc(C(C)(C)NS(=O)(=O)c2ccccc2C(F)(F)F)c1 [Compound 11, N,N-dimethyl-4-(3-(2-(2-(trifluoromethyl)phenylsulfonamido)propan-2-yl)phenyl)nicotinamide] | 1000 to 30000 | 1000 to 30000 |
| Cc1cnccc1-c1cccc(C(C)(C)NS(=O)(=O)c2cccc(Cl)c2Cl)c1 [Compound 2BV] | < 100 | < 100 |
| Cc1cnsc1-c1cccc([C@H](C)N(CCCC(=O)NCCS(=O)(=O)O)S(=O)(=O)c2cccc(Cl)c2C)c1 [Compound 20BP, (S)-2-(4-(3-chloro-2-methyl-N-(1-(3-(4-methylisothiazol-5-yl)phenyl)ethyl)phenylsulfonamido)butanamido)ethanesulfonic acid] | 1000 to 30000 | 100 to 999 |
| Cc1cnccc1-c1cccc([C@H](C)N(CCCC(=O)NCCNC(=O)[C@@H](N)CS(=O)(=O)O)S(=O)(=O)c2ccccc2C(F)(F)F)c1 [Compound 31AF, (R)-2-amino-3-((2-(4-(N-((S)-1-(3-(3-methylpyridin-4-yl)phenyl)ethyl)-2-(trifluoromethyl)phenylsulfonamido)butanamido)ethyl)amino)-3-oxopropane-1-sulfonic acid] | 100 to 999 | < 100 |
| Cc1cnccc1-c1cccc([C@H](C)N(CCCC(=O)NCCS(N)(=O)=O)S(=O)(=O)c2cccc(Cl)c2C)c1 [Compound 20AJ, (S)-4-(3-chloro-2-methyl-N-(1-(3-(3-methylpyridin-4-yl)phenyl)ethyl)phenylsulfonamido)-N-(2-sulfamoylethyl)butanamide] | 100 to 999 | < 100 |
| CC(C)(NS(=O)(=O)c1ccccc1C(F)(F)F)c1cccc(-c2ccnnc2)c1 [Compound 1BL] | 1000 to 30000 | 100 to 999 |
| COc1cnccc1-c1cccc(C(C)(C)NS(=O)(=O)c2ccc(C(F)(F)F)cc2[N+](=O)[O-])c1 [Compound 2BJ] | 1000 to 30000 | < 100 |
| Cc1cnccc1-c1cccc(C(C)(C)N(CCCNC(=O)NCCCS(=O)(=O)O)S(=O)(=O)c2cccc(Cl)c2C)c1 [Compound 29AC] | < 100 | < 100 |
| CCc1cnccc1-c1cccc([C@H](CCCC#N)NS(=O)(=O)c2ccccc2C(F)(F)F)c1 [Compound 6AC, (S)-N-(4-cyano-1-(3-(3-ethylpyridin-4-yl)phenyl)butyl)-2-(trifluoromethyl)benzenesulfonamide] | < 100 | < 100 |
| Cc1cnccc1-c1cccc([C@H](C)N(CCCCN)S(=O)(=O)c2ccccc2C(F)(F)F)c1 [Compound 24, (S)—N-(4-aminobutyl)-N-(1-(3-(3-methylpyridin-4-yl)phenyl)ethyl)-2-(trifluoromethyl)Benzenesulfonamide] | 1000 to 30000 | < 100 |
| CC(C)(NS(=O)(=O)c1ccccc1C(F)(F)F)c1cccc(-c2ccc3[nH]cnc3c2)c1 [Compound 5AL, N-(2-(3-(1H-benzo[d]imidazol-5-yl)phenyl)propan-2-yl)-2-(trifluoromethyl)benzenesulfonamide] | > 30000 | 1000 to 30000 |
| CCc1cnccc1-c1cccc(C2CNCCN2S(=O)(=O)c2cccc(Cl)c2C)c1 (racemic) [Compound 43, (+/−) 1-((3-chloro-2-methylphenyl)sulfonyl)-2-(3-(3-ethylpyridin-4-yl)phenyl)piperazine hydrochloride] | < 100 | < 100 |
| Cc1cnccc1-c1cccc(C2CCCN2S(=O)(=O)c2ccccc2C(F)(F)F)c1 (racemic) [Compound 41, (+/−) 3-Methyl-4-(3-(1-((2-(trifluoromethyl)phenyl)sulfonyl)pyrrolidin-2-yl)phenyl)pyridine] | 100 to 999 | < 100 |
| Cc1ccccc1S(=O)(=O)N(CCCC(=O)NCCS(=O)(=O)O)[C@@H](C)c1cccc(-c2ccncc2O)c1 [Compound 22AA, (S)-2-(4-(N-(1-(3-(3-hydroxypyridin-4-yl)phenyl)ethyl)-2-methylphenylsulfonamido)butanamido)ethanesulfonic acid] | 1000 to 30000 | 100 to 999 |
| Cc1cnccc1-c1cccc(C(C)N(CCCC(=O)NCCSO)S(=O)(=O)c2cccc(C(F)(F)F)c2)c1 (stereo not drawn) [Compound 20BD, N-(2-(hydroxythio)ethyl)-4-(N-(1-(3-(3-methylpyridin-4-yl)phenyl)ethyl)-3-(trifluoromethyl)phenylsulfonamido)butanamide] | 100 to 999 | 100 to 999 |
| Cc1cnccc1-c1cccc([C@H](CCCC(=O)O)NS(=O)(=O)c2ccccc2C(F)(F)F)c1 [Compound 19AA, (S)-5-(3-(3-methylpyridin-4-yl)phenyl)-5-(2-(trifluoromethyl)phenylsulfonamido) pentanoic acid] | 100 to 999 | 100 to 999 |
| Cc1cnccc1-c1cccc(C(CCC#N)NS(=O)(=O)c2ccccc2C(F)(F)F)c1 (stereo not drawn) [Compound 6AD, N-(3-cyano-1-(3-(3-methylpyridin-4-yl)phenyl)-propyl)-2-(trifluoromethyl)benzenesulfonamide] | 100 to 999 | < 100 |
| CCc1cnccc1-c1cccc(C2CN(C(=O)CCC(=O)NCCS(=O)(=O)O)CCN2S(=O)(=O)c2cccc(Cl)c2C)c1 (stereo not drawn) [Compound 53AB, 2-(4-(4-((3-chloro-2-methylphenyl)sulfonyl)-3-(3-(3-ethylpyridin-4-yl)phenyl)piperazin-1-yl)-4-oxobutanamido)ethanesulfonic acid] | < 100 | 100 to 999 |
| Cc1cnccc1-c1cccc([C@H](C)N(CCCC(=O)NCCOCCOCCOCCC(=O)O)S(=O)(=O)c2cccc(Cl)c2C)c1 [Compound 20AU, (S)-3-((3-chloro-2-methylphenyl)sulfonyl)-2-(3-(3-methylpyridin-4-yl)phenyl)-7-oxo-11,14,17-trioxa-3,8-diazaicosan-20-oic acid] | 100 to 999 | < 100 |
| Cc1cnccc1-c1cccc([C@H](C)N(CCCC(=O)NC[C@@H](O)[C@H](O)[C@@H](O)[C@@H](O)CO)S(=O)(=O)c2cccc(Cl)c2C)c1 [Compound 20AK, 4-(3-chloro-2-methyl-N-((S)-1-(3-(3-methylpyridin-4-yl)phenyl)ethyl)phenylsulfonamido)-N-((2R,3S,4S,5S)-2,3,4,5,6-pentahydroxyhexyl)butanamide] | 100 to 999 | < 100 |
| Cc1cnccc1-c1cccc(CCN(CCCNC(=O)NCS(=O)(=O)O)S(=O)(=O)c2cccc(Cl)c2C)c1 [Compound 29AD, (3-(3-(3-chloro-2-methyl-N-(3-(3-methylpyridin-4-yl)phenethyl)phenylsulfonamido)propyl)ureido)methanesulfonic acid] | 1000 to 30000 | 100 to 999 |
| Cc1cnccc1-c1cccc([C@H](C)N(CCCC(=O)O)S(=O)(=O)c2cccc(Cl)c2C)c1 [Compound 16] | < 100 | 100 to 999 |
